Holding throughout (assay): relative viability (nuclei count vs DMSO), 5 days (fraction); higher = more cells survive
Compound in the experiment “Dasatinib + Foretinib”: Cc1nc(Nc2ncc(C(=O)Nc3c(C)cccc3Cl)s2)cc(N2CCN(CCO)CC2)n1 [Dasatinib] + COc1cc2c(Oc3ccc(NC(=O)C4(C(=O)Nc5ccc(F)cc5)CC4)cc3F)ccnc2cc1OCCCN1CCOCC1 [Foretinib] (partner 0.25 µM)
A digest of the protocol: (§1)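 The day after seeding in 1536-well plates, lung cancer cell lines were treated by pin tool with a single drug, or with a fixed anchor-drug dose together with five library-drug doses (not always all listed) in √10 steps. After 5 days, a combined fix-and-stain solution (final 0.05% Triton X-100, 1% formaldehyde, 1 ug/ml Hoechst) was added. Nuclei counted on 4× images gave relative viability as treated counts over vehicle counts, reported as the median of duplicate plates.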

Compound in the experiment “ALW-II-49-7 + Tozasertib”: Cc1ccc(C(=O)Nc2cccc(C(F)(F)F)c2)cc1Nc1cncc(C(N)=O)c1 [ALW-II-49-7] + Cc1cc(Nc2cc(N3CCN(C)CC3)nc(Sc3ccc(NC(=O)C4CC4)cc3)n2)n[nH]1 [Tozasertib] (partner 0.1 µM)
The gist of the method:
as §1

Compound in the experiment “XMD13-2 + Foretinib”: C1CC1C(=O)NC2=NNC3=C2C=CC(=C3)C4=CC(=CC=C4)C(=O)NC5CC5 [XMD13-2] + COc1cc2c(Oc3ccc(NC(=O)C4(C(=O)Nc5ccc(F)cc5)CC4)cc3F)ccnc2cc1OCCCN1CCOCC1 [Foretinib] (partner 0.25 µM)
A digest of the protocol: as §1

Compound in the experiment “ALW-II-49-7 + Vorinostat”: Cc1ccc(C(=O)Nc2cccc(C(F)(F)F)c2)cc1Nc1cncc(C(N)=O)c1 [ALW-II-49-7] + O=C(CCCCCCC(=O)Nc1ccccc1)NO [Vorinostat] (partner 1 µM)
A digest of the protocol:
as §1

The text below walks through data of the supplement of paper PMC10307832.

Take UMC-11: the relative viability in the experiment with Dasatinib + Foretinib (first compound 0.005 µM) came to 0.912; with Dasatinib + Foretinib (first compound 0.01581 µM) it was 0.699; with Dasatinib + Foretinib (first compound 0.05 µM), 0.696; with Dasatinib + Foretinib (first compound 0.1581 µM), 0.379; with Dasatinib + Foretinib (first compound 0.5 µM), 0.276; in the experiment with ALW-II-49-7 + Tozasertib (first compound 0.08 µM) it was 0.193. Further, the relative viability was 0.202 with ALW-II-49-7 + Tozasertib (first compound 0.253 µM); 0.21 with ALW-II-49-7 + Tozasertib (first compound 0.8 µM); 0.186 with ALW-II-49-7 + Tozasertib (first compound 2.53 µM); 0.217 with ALW-II-49-7 + Tozasertib (first compound 8 µM); 1.23 with XMD13-2 + Foretinib (first compound 0.05 µM); 1.09 with XMD13-2 + Foretinib (first compound 0.1581 µM). Moreover, the relative viability is 1 in the experiment with XMD13-2 + Foretinib (first compound 0.5 µM); 1.08 in the experiment with XMD13-2 + Foretinib (first compound 1.581 µM); 1.06 with XMD13-2 + Foretinib (first compound 5 µM); 0.36 with ALW-II-49-7 + Vorinostat (first compound 0.08 µM); 0.381 with ALW-II-49-7 + Vorinostat (first compound 0.253 µM); 0.324 in the experiment with ALW-II-49-7 + Vorinostat (first compound 0.8 µM). The relative viability with ALW-II-49-7 + Vorinostat (first compound 2.53 µM) came to 0.357; with ALW-II-49-7 + Vorinostat (first compound 8 µM), 0.305.
